Read-outs that look alike come from different tables or passages of the source.
Tests used:
Epac1 [1] = target: T1, Epac1 (Homo sapiens, UniProt O95398); design: method as in PMID 12888551; conditions: footnote c, see also ref 13; cited from earlier work
T1 construct: made in house
T1 sequence (O95398 150-881 isoform O95398-3): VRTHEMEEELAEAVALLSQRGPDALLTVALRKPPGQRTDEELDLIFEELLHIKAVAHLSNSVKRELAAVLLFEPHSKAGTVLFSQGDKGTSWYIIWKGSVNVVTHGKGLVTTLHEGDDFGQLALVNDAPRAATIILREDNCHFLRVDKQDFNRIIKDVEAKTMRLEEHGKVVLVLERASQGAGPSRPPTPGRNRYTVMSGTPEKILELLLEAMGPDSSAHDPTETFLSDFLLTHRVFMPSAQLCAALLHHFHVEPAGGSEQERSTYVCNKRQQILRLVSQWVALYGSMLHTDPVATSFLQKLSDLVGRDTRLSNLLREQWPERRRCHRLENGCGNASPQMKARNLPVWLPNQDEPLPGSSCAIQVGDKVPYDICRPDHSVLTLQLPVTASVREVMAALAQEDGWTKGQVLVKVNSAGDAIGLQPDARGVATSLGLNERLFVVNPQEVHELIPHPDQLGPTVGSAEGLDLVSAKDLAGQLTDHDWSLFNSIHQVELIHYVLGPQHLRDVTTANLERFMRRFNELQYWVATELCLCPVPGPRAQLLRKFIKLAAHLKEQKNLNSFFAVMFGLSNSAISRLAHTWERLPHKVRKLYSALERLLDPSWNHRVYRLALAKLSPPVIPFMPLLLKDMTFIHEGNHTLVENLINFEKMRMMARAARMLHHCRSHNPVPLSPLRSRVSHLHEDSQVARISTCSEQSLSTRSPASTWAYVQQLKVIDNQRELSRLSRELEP

Epac2^Δ280 = target: T2, Epac2^Δ280 (Mus musculus, UniProt Q9EQZ6); assay: Epac activation assay (Rap1B•mGDP fluorescence nucleotide exchange), Epac2^Δ280; type: biochemical; conditions: Epac2^Δ280; for Rel. kmax: maximal activity relative to cAMP
T2 construct: made in house
T2 sequence (Q9EQZ6 281-993 isoform Q9EQZ6-3): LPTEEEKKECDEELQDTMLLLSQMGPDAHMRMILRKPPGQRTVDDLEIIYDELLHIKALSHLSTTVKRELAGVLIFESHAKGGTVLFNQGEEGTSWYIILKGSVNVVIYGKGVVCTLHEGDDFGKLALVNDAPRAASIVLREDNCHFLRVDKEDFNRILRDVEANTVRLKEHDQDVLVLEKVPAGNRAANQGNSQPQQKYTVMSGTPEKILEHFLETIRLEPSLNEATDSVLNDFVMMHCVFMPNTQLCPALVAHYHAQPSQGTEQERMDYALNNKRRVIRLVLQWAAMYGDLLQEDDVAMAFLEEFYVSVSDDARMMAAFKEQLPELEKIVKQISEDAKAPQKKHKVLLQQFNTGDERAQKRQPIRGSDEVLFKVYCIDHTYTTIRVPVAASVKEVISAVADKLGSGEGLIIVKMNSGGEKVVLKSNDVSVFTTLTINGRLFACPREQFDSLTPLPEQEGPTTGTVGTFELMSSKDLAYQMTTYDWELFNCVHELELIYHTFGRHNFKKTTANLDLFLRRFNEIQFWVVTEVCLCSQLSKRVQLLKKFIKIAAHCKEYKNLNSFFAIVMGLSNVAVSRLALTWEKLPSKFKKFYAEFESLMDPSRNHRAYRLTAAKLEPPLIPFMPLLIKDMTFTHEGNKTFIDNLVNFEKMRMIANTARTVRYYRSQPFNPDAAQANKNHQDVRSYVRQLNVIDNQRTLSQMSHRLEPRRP
Experimental: (§1) Murine Epac2 was used as all previous structural studies were performed with it.
(§2) The activity of Epac was determined by a fluorescence assay. […] The fluorescence intensity of Rap1B•mGDP is approximately twice that of free mGDP, and thus, nucleotide exchange can be observed as a decay in fluorescence upon the addition of excess unlabeled GDP.

Epac2^fl = target: T3, Epac2^fl (Mus musculus, UniProt Q9EQZ6); assay: Epac activation assay, full length Epac2; type: biochemical; design: made in house; conditions: Epac2^fl; for Rel. kmax: maximal activity relative to cAMP
T3 sequence (Q9EQZ6 1-993 isoform Q9EQZ6-3): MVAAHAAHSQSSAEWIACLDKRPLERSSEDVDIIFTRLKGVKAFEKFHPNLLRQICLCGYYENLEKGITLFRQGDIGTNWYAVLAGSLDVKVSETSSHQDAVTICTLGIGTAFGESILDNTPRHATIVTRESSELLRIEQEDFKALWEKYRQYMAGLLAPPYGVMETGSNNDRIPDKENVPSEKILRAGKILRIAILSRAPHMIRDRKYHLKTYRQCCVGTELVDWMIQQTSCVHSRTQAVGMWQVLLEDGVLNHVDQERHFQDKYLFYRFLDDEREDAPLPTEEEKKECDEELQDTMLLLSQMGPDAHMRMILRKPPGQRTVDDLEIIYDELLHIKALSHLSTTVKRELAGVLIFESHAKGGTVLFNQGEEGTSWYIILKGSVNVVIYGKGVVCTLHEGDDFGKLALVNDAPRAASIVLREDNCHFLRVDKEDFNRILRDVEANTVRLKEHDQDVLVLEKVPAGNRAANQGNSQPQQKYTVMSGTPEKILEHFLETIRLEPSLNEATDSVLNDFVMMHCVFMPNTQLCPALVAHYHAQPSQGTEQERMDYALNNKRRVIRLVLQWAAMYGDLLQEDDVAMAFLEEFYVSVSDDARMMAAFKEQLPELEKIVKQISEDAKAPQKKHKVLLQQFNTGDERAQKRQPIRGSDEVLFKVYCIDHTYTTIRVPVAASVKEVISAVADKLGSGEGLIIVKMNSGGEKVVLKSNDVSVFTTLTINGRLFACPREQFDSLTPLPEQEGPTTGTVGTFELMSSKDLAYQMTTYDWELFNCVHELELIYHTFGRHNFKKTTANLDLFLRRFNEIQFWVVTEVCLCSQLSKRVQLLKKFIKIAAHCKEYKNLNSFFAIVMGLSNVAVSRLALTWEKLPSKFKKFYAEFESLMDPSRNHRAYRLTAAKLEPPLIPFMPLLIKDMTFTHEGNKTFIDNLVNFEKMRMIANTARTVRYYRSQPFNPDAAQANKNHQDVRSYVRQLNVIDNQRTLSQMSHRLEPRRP
Experimental: as §1, §2

Epac1 [2] = target: T1, Epac1; assay: Epac activation assay, Epac1; type: biochemical; conditions: Epac1; for Rel. kmax: maximal activity relative to cAMP

Nc1ncnc2c1ncn2[C@H]1C[C@@H]2OP(=O)(O)OC[C@H]2O1 [Z-001, 2′-dcAMP]
AC50 (Epac1 [1]): > 1000 µM
AC50 (Epac2^Δ280): 70 µM
Rel. kmax (Epac2^Δ280): 1.4

CO[C@H]1C2OP(=O)(O)OC[C@H]2O[C@H]1n1cnc2c(N)ncnc21 (some centres unmarked) [Z-004, 2′-O-Me-cAMP]
AC50 (Epac1 [1]): > 100 µM
AC50 (Epac2^Δ280): 32 µM
Rel. kmax (Epac2^Δ280): 1.0

Nc1ncnc2c1nc(Br)n2[C@@H]1O[C@@H]2COP(=O)(O)O[C@H]2[C@H]1O [L-002, 8-Br-cAMP]
AC50 (Epac1 [1]): 6.2 µM
Rel. kmax (Epac1 [1]): 0.5^c
AC50 (Epac2^Δ280): 0.4 µM
Rel. kmax (Epac2^Δ280): 0.9

Nc1ncnc2c1[nH]c(=O)n2C1OC2COP(=O)(O)OC2C1O [L-021, 8-OH-cAMP]
AC50 (Epac1 [1]): 26 µM
Rel. kmax (Epac1 [1]): 0.5^c
AC50 (Epac2^Δ280): 0.6 µM
Rel. kmax (Epac2^Δ280): 0.4

CNc1nc2c(N)ncnc2n1[C@@H]1O[C@@H]2CO[P@](O)(=S)O[C@H]2[C@H]1O [S-030, Sp-8-MeA-cAMPS]
AC50 (Epac2^fl): 10 µM
Rel. kmax (Epac2^fl): 7.7
AC50 (Epac2^Δ280): 0.7 µM
Rel. kmax (Epac2^Δ280): 8.4
AC50 (Epac1 [2]): 30 µM
Rel. kmax (Epac1 [2]): 1.4

CNc1nc2c(N)ncnc2n1[C@@H]1O[C@@H]2COP(=O)(O)O[C@H]2[C@H]1O [L-005, 8-MeA-cAMP]
AC50 (Epac1 [1]): 19 µM
Rel. kmax (Epac1 [1]): 0.5^c
AC50 (Epac2^Δ280): 0.6 µM
Rel. kmax (Epac2^Δ280): 3.3

Nc1ncnc2c1nc(N1CCCCC1)n2[C@@H]1O[C@@H]2COP(=O)(O)O[C@H]2[C@H]1O [L-018, 8-PIP-cAMP]
AC50 (Epac1 [1]): 130 µM
Rel. kmax (Epac1 [1]): 0.9^c
AC50 (Epac2^Δ280): 13 µM
Rel. kmax (Epac2^Δ280): 3.8

CSc1nc2c(N)ncnc2n1[C@@H]1O[C@@H]2COP(=O)(O)O[C@H]2[C@H]1SC [D-002, 8,2′-DMeT-cAMP]
AC50 (Epac2^fl): 110 µM
Rel. kmax (Epac2^fl): 2.4
AC50 (Epac2^Δ280): 2.6 µM
Rel. kmax (Epac2^Δ280): 2.0
AC50 (Epac1 [2]): 17 µM
Rel. kmax (Epac1 [2]): 1.4

Nc1ncnc2c1nc(SCc1ccccc1)n2[C@@H]1O[C@@H]2CO[P@](O)(=S)O[C@H]2[C@H]1F [S-222, Sp-8-BnT-2′-F-cAMPS]
AC50 (Epac2^fl): 15 µM
Rel. kmax (Epac2^fl): 1.8
AC50 (Epac2^Δ280): 4.3 µM
Rel. kmax (Epac2^Δ280): 4.2
AC50 (Epac1 [2]): 60 µM
Rel. kmax (Epac1 [2]): 0.09

Nc1ncnc2c1nc(Cl)n2[C@@H]1O[C@@H]2COP(=O)(O)O[C@H]2[C@H]1O [L-001, 8-Cl-cAMP]
AC50 (Epac1 [1]): 6.9 µM
Rel. kmax (Epac1 [1]): 0.5^c
AC50 (Epac2^Δ280): 0.3 µM
Rel. kmax (Epac2^Δ280): 0.8

Nc1ncnc2c1nc(Br)n2[C@@H]1O[C@@H]2COP(O)(=S)O[C@@H]2C1O (some centres unmarked) [S-010, Sp-8-Br-cAMPS]
AC50 (Epac2^fl): 8 µM
Rel. kmax (Epac2^fl): 3.6
AC50 (Epac2^Δ280): 0.4 µM
Rel. kmax (Epac2^Δ280): 3.5
AC50 (Epac1 [2]): 16 µM
Rel. kmax (Epac1 [2]): 1.0

CO[C@H]1C2OP(O)(=S)OC[C@H]2O[C@H]1n1c(Br)nc2c(N)ncnc21 (some centres unmarked) [S-014, Sp-8-Br-2′-O-Me-cAMPS]
AC50 (Epac2^fl): > 80 µM
AC50 (Epac2^Δ280): 13 µM
Rel. kmax (Epac2^Δ280): 2.0

Source: paper PMC4300089, “Structure-Guided Design of Selective Epac1 and Epac2 Agonists” (PLoS Biology, 2015)
